From the supplement of paper PMC10307832

Columns and labels:
Assay in all cases: relative viability (nuclei count vs DMSO), 5 days (fraction); higher = more cells survive
[1] = system: 201T
Procedure, shortened: (§1)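 Five library-drug doses in √10 steps were combined with a fixed anchor-drug dose, or a single drug was given alone, by pin tool to lung cancer cell lines in 1536-well plates the day after seeding. Nuclei were stained and counted after 5 days. Relative viability is the nuclei count in treated wells over that in vehicle wells, taken as the median of duplicate plates.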

[2] = system: BEN
Procedure, shortened: as §1

[3] = system: COR-L 105
Procedure, shortened: as §1

[4] = system: EKVX
Procedure, shortened: as §1

[5] = system: EPLC-272H
Procedure, shortened: as §1

[6] = system: H3255
Procedure, shortened: as §1

[7] = system: HCC-44
Procedure, shortened: as §1

[8] = system: HCC-827
Procedure, shortened: as §1

[9] = system: LCLC-97TM1
Procedure, shortened: as §1

[10] = system: LOU-NH91
Procedure, shortened: as §1

[11] = system: LU99A
Procedure, shortened: as §1

[12] = system: NCI-H1437
Procedure, shortened: as §1

[13] = system: NCI-H1666
Procedure, shortened: as §1

[14] = system: NCI-H1975
Procedure, shortened: as §1

[15] = system: NCI-H2085
Procedure, shortened: as §1

[16] = system: NCI-H2087
Procedure, shortened: as §1

[17] = system: NCI-H2170
Procedure, shortened: as §1

[18] = system: NCI-H647
Procedure, shortened: as §1

[19] = system: NCI-H650
Procedure, shortened: as §1

[20] = system: PC-3 [JPC-3]
Procedure, shortened: as §1

[21] = system: SW 1573
Procedure, shortened: as §1

COc1nc(C)cnc1NS(=O)(=O)c1cccnc1-c1ccc(-c2nnco2)cc1 [Zibotentan] + Cc1nc(NC(=O)N2CCC[C@H]2C(N)=O)sc1-c1ccnc(C(C)(C)C(F)(F)F)c1 [Alpelisib] (partner 2 µM)
relative viability ([1]; first compound 0.08 µM): 1.05 | relative viability ([1]; first compound 0.253 µM): 0.993 | relative viability ([1]; first compound 0.8 µM): 1.1 | relative viability ([1]; first compound 2.53 µM): 1.11 | relative viability ([2]; first compound 0.08 µM): 1.17 | relative viability ([2]; first compound 0.253 µM): 0.955 | relative viability ([2]; first compound 0.8 µM): 1.02 | relative viability ([2]; first compound 2.53 µM): 0.922 | relative viability ([3]; first compound 0.08 µM): 1.13 | relative viability ([3]; first compound 0.253 µM): 0.892 | relative viability ([3]; first compound 0.8 µM): 1.21 | relative viability ([3]; first compound 2.53 µM): 0.93 | relative viability ([4]; first compound 0.08 µM): 0.927 | relative viability ([4]; first compound 0.253 µM): 0.86 | relative viability ([4]; first compound 0.8 µM): 0.775 | relative viability ([4]; first compound 2.53 µM): 0.82 | relative viability ([5]; first compound 0.08 µM): 0.805 | relative viability ([5]; first compound 0.253 µM): 0.908 | relative viability ([5]; first compound 0.8 µM): 0.979 | relative viability ([5]; first compound 2.53 µM): 0.943 | relative viability ([6]; first compound 0.08 µM): 0.712 | relative viability ([6]; first compound 0.253 µM): 0.698 | relative viability ([6]; first compound 0.8 µM): 0.672 | relative viability ([6]; first compound 2.53 µM): 0.727 | relative viability ([7]; first compound 0.08 µM): 0.932 | relative viability ([7]; first compound 0.253 µM): 0.768 | relative viability ([7]; first compound 0.8 µM): 0.842 | relative viability ([7]; first compound 2.53 µM): 0.842 | relative viability ([8]; first compound 0.08 µM): 1.01 | relative viability ([8]; first compound 0.253 µM): 1.07 | relative viability ([8]; first compound 0.8 µM): 0.808 | relative viability ([8]; first compound 2.53 µM): 0.975 | relative viability ([9]; first compound 0.08 µM): 0.309 | relative viability ([9]; first compound 0.253 µM): 0.238 | relative viability ([9]; first compound 0.8 µM): 0.183 | relative viability ([9]; first compound 2.53 µM): 0.264 | relative viability ([10]; first compound 0.08 µM): 0.749 | relative viability ([10]; first compound 0.253 µM): 0.696 | relative viability ([10]; first compound 0.8 µM): 0.785 | relative viability ([10]; first compound 2.53 µM): 0.702 | relative viability ([11]; first compound 0.08 µM): 0.516 | relative viability ([11]; first compound 0.253 µM): 0.58 | relative viability ([11]; first compound 0.8 µM): 0.545 | relative viability ([11]; first compound 2.53 µM): 0.58 | relative viability ([12]; first compound 0.08 µM): 0.949 | relative viability ([12]; first compound 0.253 µM): 0.867 | relative viability ([12]; first compound 0.8 µM): 0.913 | relative viability ([12]; first compound 2.53 µM): 0.973 | relative viability ([13]; first compound 0.08 µM): 1.12 | relative viability ([13]; first compound 0.253 µM): 0.724 | relative viability ([13]; first compound 0.8 µM): 1.18 | relative viability ([13]; first compound 2.53 µM): 0.993 | relative viability ([14]; first compound 0.08 µM): 0.635 | relative viability ([14]; first compound 0.253 µM): 0.548 | relative viability ([14]; first compound 0.8 µM): 0.642 | relative viability ([14]; first compound 2.53 µM): 0.585 | relative viability ([15]; first compound 0.08 µM): 0.93 | relative viability ([15]; first compound 0.253 µM): 0.939 | relative viability ([15]; first compound 0.8 µM): 1.06 | relative viability ([15]; first compound 2.53 µM): 0.932 | relative viability ([16]; first compound 0.08 µM): 1.06 | relative viability ([16]; first compound 0.253 µM): 1.13 | relative viability ([16]; first compound 0.8 µM): 1.03 | relative viability ([16]; first compound 2.53 µM): 1.05 | relative viability ([17]; first compound 0.08 µM): 0.802 | relative viability ([17]; first compound 0.253 µM): 0.791 | relative viability ([17]; first compound 0.8 µM): 0.889 | relative viability ([17]; first compound 2.53 µM): 0.835 | relative viability ([18]; first compound 0.08 µM): 1.29 | relative viability ([18]; first compound 0.253 µM): 0.92 | relative viability ([18]; first compound 0.8 µM): 1.28 | relative viability ([18]; first compound 2.53 µM): 1.24 | relative viability ([19]; first compound 0.08 µM): 1.13 | relative viability ([19]; first compound 0.253 µM): 1.06 | relative viability ([19]; first compound 0.8 µM): 1.03 | relative viability ([19]; first compound 2.53 µM): 1.16 | relative viability ([20]; first compound 0.08 µM): 1.01 | relative viability ([20]; first compound 0.253 µM): 1.06 | relative viability ([20]; first compound 0.8 µM): 1.05 | relative viability ([20]; first compound 2.53 µM): 1.04 | relative viability ([21]; first compound 0.08 µM): 0.726 | relative viability ([21]; first compound 0.253 µM): 0.639 | relative viability ([21]; first compound 0.8 µM): 0.775 | relative viability ([21]; first compound 2.53 µM): 0.758

O=c1cc(N2CCOCC2)oc2c(-c3cccc4c3sc3ccccc34)cccc12 + C[C@@H](Oc1cc(-c2cnn(C3CCNCC3)c2)cnc1N)c1c(Cl)ccc(F)c1Cl [Crizotinib] (partner 1 µM)
relative viability ([1]; first compound 0.01 µM): 1 | relative viability ([1]; first compound 0.03162 µM): 1.01 | relative viability ([1]; first compound 0.1 µM): 0.981 | relative viability ([1]; first compound 0.3162 µM): 1.01 | relative viability ([1]; first compound 1 µM): 1.03 | relative viability ([2]; first compound 0.01 µM): 0.853 | relative viability ([2]; first compound 0.03162 µM): 0.892 | relative viability ([2]; first compound 0.1 µM): 0.877 | relative viability ([2]; first compound 0.3162 µM): 0.951 | relative viability ([2]; first compound 1 µM): 0.893 | relative viability ([3]; first compound 0.01 µM): 0.655 | relative viability ([3]; first compound 0.03162 µM): 0.649 | relative viability ([3]; first compound 0.1 µM): 0.856 | relative viability ([3]; first compound 0.3162 µM): 0.724 | relative viability ([3]; first compound 1 µM): 0.589 | relative viability ([4]; first compound 0.01 µM): 1.04 | relative viability ([4]; first compound 0.03162 µM): 0.881 | relative viability ([4]; first compound 0.1 µM): 1.18 | relative viability ([4]; first compound 0.3162 µM): 0.915 | relative viability ([4]; first compound 1 µM): 0.995 | relative viability ([5]; first compound 0.01 µM): 0.909 | relative viability ([5]; first compound 0.03162 µM): 1.07 | relative viability ([5]; first compound 0.3162 µM): 0.937 | relative viability ([5]; first compound 1 µM): 0.896 | relative viability ([6]; first compound 0.01 µM): 0.871 | relative viability ([6]; first compound 0.03162 µM): 1.05 | relative viability ([6]; first compound 0.1 µM): 0.971 | relative viability ([6]; first compound 0.3162 µM): 0.926 | relative viability ([6]; first compound 1 µM): 0.769 | relative viability ([7]; first compound 0.01 µM): 0.862 | relative viability ([7]; first compound 0.03162 µM): 0.811 | relative viability ([7]; first compound 0.1 µM): 0.814 | relative viability ([7]; first compound 0.3162 µM): 0.788 | relative viability ([7]; first compound 1 µM): 0.776 | relative viability ([8]; first compound 0.01 µM): 0.918 | relative viability ([8]; first compound 0.03162 µM): 0.939 | relative viability ([8]; first compound 0.1 µM): 0.873 | relative viability ([8]; first compound 0.3162 µM): 0.965 | relative viability ([8]; first compound 1 µM): 0.956 | relative viability ([9]; first compound 0.01 µM): 0.444 | relative viability ([9]; first compound 0.03162 µM): 0.339 | relative viability ([9]; first compound 0.3162 µM): 0.281 | relative viability ([9]; first compound 1 µM): 0.39 | relative viability ([10]; first compound 0.01 µM): 0.705 | relative viability ([10]; first compound 0.03162 µM): 0.695 | relative viability ([10]; first compound 0.1 µM): 0.717 | relative viability ([10]; first compound 0.3162 µM): 0.738 | relative viability ([10]; first compound 1 µM): 0.698 | relative viability ([11]; first compound 0.01 µM): 0.647 | relative viability ([11]; first compound 0.03162 µM): 0.574 | relative viability ([11]; first compound 0.1 µM): 0.577 | relative viability ([11]; first compound 0.3162 µM): 0.535 | relative viability ([11]; first compound 1 µM): 0.573 | relative viability ([12]; first compound 0.01 µM): 0.963 | relative viability ([12]; first compound 0.03162 µM): 0.896 | relative viability ([12]; first compound 0.1 µM): 0.959 | relative viability ([12]; first compound 0.3162 µM): 0.915 | relative viability ([12]; first compound 1 µM): 0.82 | relative viability ([13]; first compound 0.01 µM): 0.971 | relative viability ([13]; first compound 0.03162 µM): 1.05 | relative viability ([13]; first compound 0.1 µM): 0.905 | relative viability ([13]; first compound 0.3162 µM): 0.941 | relative viability ([13]; first compound 1 µM): 0.812 | relative viability ([14]; first compound 0.01 µM): 0.862 | relative viability ([14]; first compound 0.03162 µM): 0.998 | relative viability ([14]; first compound 0.1 µM): 1.02 | relative viability ([14]; first compound 0.3162 µM): 0.808 | relative viability ([14]; first compound 1 µM): 0.984 | relative viability ([15]; first compound 0.01 µM): 0.941 | relative viability ([15]; first compound 0.03162 µM): 0.89 | relative viability ([15]; first compound 0.1 µM): 0.879 | relative viability ([15]; first compound 0.3162 µM): 0.841 | relative viability ([15]; first compound 1 µM): 0.889 | relative viability ([16]; first compound 0.01 µM): 0.884 | relative viability ([16]; first compound 0.03162 µM): 1.07 | relative viability ([16]; first compound 0.1 µM): 0.84 | relative viability ([16]; first compound 0.3162 µM): 0.682 | relative viability ([16]; first compound 1 µM): 0.838 | relative viability ([17]; first compound 0.01 µM): 1.24 | relative viability ([17]; first compound 0.03162 µM): 1.17 | relative viability ([17]; first compound 0.1 µM): 1.24 | relative viability ([17]; first compound 0.3162 µM): 1.12 | relative viability ([17]; first compound 1 µM): 1.17 | relative viability ([18]; first compound 0.01 µM): 1.12 | relative viability ([18]; first compound 0.03162 µM): 1.23 | relative viability ([18]; first compound 0.1 µM): 1.08 | relative viability ([18]; first compound 0.3162 µM): 0.949 | relative viability ([18]; first compound 1 µM): 0.939 | relative viability ([19]; first compound 0.01 µM): 0.738 | relative viability ([19]; first compound 0.03162 µM): 0.82 | relative viability ([19]; first compound 0.3162 µM): 0.868 | relative viability ([19]; first compound 1 µM): 0.587 | relative viability ([20]; first compound 0.01 µM): 0.931 | relative viability ([20]; first compound 0.03162 µM): 0.903 | relative viability ([20]; first compound 0.1 µM): 0.938 | relative viability ([20]; first compound 0.3162 µM): 0.941 | relative viability ([20]; first compound 1 µM): 1.01 | relative viability ([21]; first compound 0.01 µM): 0.787 | relative viability ([21]; first compound 0.03162 µM): 0.805 | relative viability ([21]; first compound 0.1 µM): 0.808 | relative viability ([21]; first compound 0.3162 µM): 0.74 | relative viability ([21]; first compound 1 µM): 0.752
